The record followed here is BindingDB's records for doi:10.1016/j.bioorg.2016.08.009 (China Pharmaceutical University, 2016).

Broadly, the IC50 is the point on the concentration scale where inhibition reaches its midpoint. Read a high IC50 as weaker potency.

This experiment concerns the target T1, Bromodomain-containing protein 4 [44-168] (Human, UniProt O60885).
T1 construct: 44-168
Briefly: BRD4-BD1 Binding Assay. The conditions noted are these: 25 °C. On the procedure:
11 compounds were evaluated against BRD4-BD1 in vitro with compound 28a as the reference compound. BRD4 (44-168 aa) was bought from Active Motif. After preparing 1× assay buffer (modified HEPES Buffer), target compounds were transferred to assay plate by Echo, and the final concentration of DMSO solution was 0.1%. Then the preparation of protein solution and substrate solution in 1× assay buffer was performed. After that, 5 µL of protein solution was transferred to assay plate and incubated at room temperature for 15 min. The protein concentration was 5 nM. Then 5 µL of substrate solution was added to each well to start reaction with an incubation period for 60 min at room temperature. Finally, 15 µL acceptor and donor solution were added, followed by another incubation period for 60 min at room temperature under subdued light.

`COc1ccc(CN2c3cc(-c4c(C)noc4C)ccc3NC(=O)C2C)cc1` [2(R)-6-(3,5-dimethylisoxazol-4-yl)-4-(4-methoxybenzyl)-3-methyl-3,4-dihydroquinoxalin-2(1H)-one (5b)] displayed an IC50 of 160 nM.

Compound `Cc1noc(C)c1-c1ccc2c(c1)N(C1CCCC1)[C@H](C)C(=O)N2` [4(R)-4-cyclopentyl-6-(3,5-dimethylisoxazol-4-yl)-3-methyl-3,4-dihydroquinoxalin 2(1H)-one (5] yielded an IC50 of 370 nM. This IC50 lies about 2.3-fold higher than the previous one.

`Cc1noc(C)c1-c1ccc2c(c1)N(Cc1ccc(Cl)cc1)CC(=O)N2` [4-(4-Chlorobenzyl)-6-(3,5-dimethylisoxazol-4-yl)-3,4-dihydroquinoxalin-2(1H)-one (5k)] displayed an IC50 of 500 nM.

Turning to `Cc1noc(C)c1-c1ccc2c(c1)N(Cc1ccccc1)C(CO)C(=O)N2` [8(R)-4-benzyl-6-(3,5-dimethylisoxazol-4-yl)-3-(hydroxymethyl)-3,4-dihydroquinoxalin-2(1H)-one (5h)], the IC50 is 650 nM.

Compound `Cc1noc(C)c1-c1ccc2c(c1)N(Cc1ccccc1)[C@H](Cc1ccccc1)C(=O)N2` [(R)-3,4-dibenzyl-6-(3,5-dimethylisoxazol-4-yl)-3,4-dihydroquinoxalin-2(1H)-one (5j)] gave an IC50 of 151 nM.

Consider `CC[C@@H]1C(=O)Nc2ccc(-c3c(C)noc3C)cc2N1Cc1ccccc1` [(R)-4-benzyl-6-(3,5-dimethylisoxazol-4-yl)-3-ethyl-3,4-dihydroquinoxalin-2(1H)-one (5i)], for which the IC50 was found to be 73 nM.

In turn, `COc1ccc(CN2c3cc(-c4c(C)noc4C)ccc3N(C)C(=O)[C@H]2C)cc1` [(R)-6-(3,5-dimethylisoxazol-4-yl)-4-(4-methoxybenzyl)-1,3-dimethyl-3,4-dihydroquinoxalin-2(1H)-one (8)] displayed an IC50 of 220 nM. Against the preceding compound, the IC50 is about 3-fold higher.
